Assay results taken from ChEMBL document CHEMBL1148876 (Bioorg Med Chem Lett, 2007).
pIC50: −log10 of the molar value. The source made the active and inactive calls. The calls are words filed in the database; no cut-off is given here.

Experiments:
[1] = Apparent permeability from basolateral to apical side in MDR-MDCK cells overexpressing human p-glycoprotein at 5 uM after 120 mins; assay type: ADME, cell-based; settings: MDCK-MDR1
[2] = Apparent permeability from apical to basolateral side in MDR-MDCK cells overexpressing human p-glycoprotein at 5 uM after 120 mins; assay type: ADME, cell-based; settings: MDCK-MDR1
[3] = Stability in PBS assessed as percentage of remaining compound after 24 hrs; assay type: physicochemical; settings: read-out: Activity
[4] = Stability assessed as half life in mouse plasma; assay type: ADME, cell-free
[5] = species on record: Homo sapiens; assay: Stability assessed as half life in human plasma
[6] = system: HEK293; assay: Cytotoxicity against HEK293 cells; assay type: functional, cell-based; settings: Homo sapiens
[7] = Stability assessed as half life in PBS buffer; assay type: physicochemical
[8] = (§1) Ratio of permeability from basolateral to apical over apical to basolateral side of the MDR-MDCK cells at 5 uM after 120 mins; assay type: ADME, cell-based; settings: human, MDCK-MDR1
[9] = system: MDCK; assay: as §1; assay type: ADME, cell-based; settings: human, mdck, 2 h, 5 µM
[10] = target: Tubulin (Homo sapiens) (UniProt P68371+Q9H4B7+P0DPH7+P68366+Q13509+Q71U36+P04350+Q3ZCM7+P07437+P68363+Q9BQE3+Q6PEY2+Q13885+Q9BVA1+Q9BUF5); assay: Effect on tubulin polymerization by microtubule polymerization assay; assay type: protein-complex assay

Row | Compound | Papp B→A at 2 h, 5 µM [1] | Papp A→B at 2 h, 5 µM [2] | remaining at 24 h [3] | half-life [4] | half-life [5] | half-life [7] | efflux ratio at 2 h, 5 µM [8] | Ratio [9] | Activity [10] | pIC50 [6]
1 | CC(=O)O[C@@]12CO[C@@H]1C[C@H](O)[C@@]1(C)C(=O)[C@H](OC(=O)NCC(=O)O)C3=C(C)[C@@H](OC(=O)[C@H](O)[C@@H](NC(=O)c4ccccc4)c4ccccc4)C[C@@](O)([C@@H](OC(=O)c4ccccc4)[C@H]21)C3(C)C | 0.05 ×10⁻⁶ cm/s | 0.09 ×10⁻⁶ cm/s | 91.6% | 31.3 h | 52 h | > 60 h | 0.6 | – | – | 5.08
2 | CC(=O)O[C@@]12CO[C@@H]1C[C@H](O)[C@@]1(C)C(=O)[C@H](O)C3=C(C)[C@@H](OC(=O)[C@H](O)[C@@H](NC(=O)OC(C)(C)C)c4ccccc4)C[C@@](O)([C@@H](OC(=O)c4ccccc4)[C@H]21)C3(C)C.O.O.O [DOCETAXEL] | 15.5 ×10⁻⁶ cm/s | < 0.62 ×10⁻⁶ cm/s | – | – | – | – | – | > 25 | inactive | 7.57
3 | COC(=O)CNC(=O)O[C@H]1C(=O)[C@@]2(C)[C@H]([C@H](OC(=O)c3ccccc3)[C@]3(O)C[C@H](OC(=O)[C@H](O)[C@@H](NC(=O)c4ccccc4)c4ccccc4)C(C)=C1C3(C)C)[C@]1(OC(C)=O)CO[C@@H]1C[C@@H]2O | 3.36 ×10⁻⁶ cm/s | < 0.62 ×10⁻⁶ cm/s | – | – | – | – | – | > 5.4 | – | 7.22
4 | CC(=O)O[C@H]1C(=O)[C@]2(C)[C@@H](OC(=O)NCC(=O)O)C[C@H]3OC[C@@]3(OC(C)=O)[C@H]2[C@H](OC(=O)c2ccccc2)[C@]2(O)C[C@H](OC(=O)[C@H](O)[C@@H](NC(=O)c3ccccc3)c3ccccc3)C(C)=C1C2(C)C | 0.06 ×10⁻⁶ cm/s | 0.07 ×10⁻⁶ cm/s | – | – | – | – | – | 0.9 | – | < 4.60
5 | CC(=O)O[C@@]12CO[C@@H]1C[C@H](O)[C@@]1(C)C(=O)[C@H](OC(=O)N3CCOCC3)C3=C(C)[C@@H](OC(=O)[C@H](O)[C@@H](NC(=O)c4ccccc4)c4ccccc4)C[C@@](O)([C@@H](OC(=O)c4ccccc4)[C@H]21)C3(C)C | 22.6 ×10⁻⁶ cm/s | 0.17 ×10⁻⁶ cm/s | – | – | – | – | 133 | – | – | –
6 | CC(=O)O[C@@]12CO[C@@H]1C[C@H](O)[C@@]1(C)C(=O)[C@H](OC(=O)NCC(=O)O)C3=C(C)[C@@H](OC(=O)[C@H](O)[C@@H](NC(=O)OC(C)(C)C)c4ccccc4)C[C@@](O)([C@@H](OC(=O)c4ccccc4)[C@H]21)C3(C)C | < 0.2 ×10⁻⁶ cm/s | < 0.2 ×10⁻⁶ cm/s | – | – | – | – | – | – | – | 5.77
7 | CC(=O)O[C@@]12CO[C@@H]1C[C@H](O)[C@@]1(C)C(=O)[C@H](OC(=O)NCCC(=O)O)C3=C(C)[C@@H](OC(=O)[C@H](O)[C@@H](NC(=O)c4ccccc4)c4ccccc4)C[C@@](O)([C@@H](OC(=O)c4ccccc4)[C@H]21)C3(C)C | < 0.64 ×10⁻⁶ cm/s | < 0.64 ×10⁻⁶ cm/s | – | – | – | – | – | – | – | 5.13
8 | CC(=O)O[C@@]12CO[C@@H]1C[C@H](O)[C@@]1(C)C(=O)[C@H](O)C3=C(C)[C@@H](OC(=O)[C@H](O)[C@@H](NC(=O)c4ccccc4)c4ccccc4)C[C@@](O)([C@@H](OC(=O)c4ccccc4)[C@H]21)C3(C)C | 5.17 ×10⁻⁶ cm/s | 0.13 ×10⁻⁶ cm/s | – | – | – | – | 39 | – | – | 7.12
9 | CC(=O)O[C@@]12CO[C@@H]1C[C@H](O)[C@@]1(C)C(=O)[C@H](OC(=O)N[C@H]3CCOC3=O)C3=C(C)[C@@H](OC(=O)[C@H](O)[C@@H](NC(=O)c4ccccc4)c4ccccc4)C[C@@](O)([C@@H](OC(=O)c4ccccc4)[C@H]21)C3(C)C | 0.21 ×10⁻⁶ cm/s | < 0.07 ×10⁻⁶ cm/s | – | – | – | – | – | > 3 | – | 5.72

Further lines, with some results ahead:

Row | Papp B→A at 2 h, 5 µM [1] | Papp A→B at 2 h, 5 µM [2] | remaining at 24 h [3] | half-life [4] | half-life [5] | half-life [7] | efflux ratio at 2 h, 5 µM [8] | Ratio [9] | Activity [10] | Compound | pIC50 [6]
10 | 25.3 ×10⁻⁶ cm/s | < 0.2 ×10⁻⁶ cm/s | – | – | – | – | – | > 127 | – | CC(=O)O[C@@]12CO[C@@H]1C[C@H](O)[C@@]1(C)C(=O)[C@H](OC(=O)N(C)[C@H](C)[C@H](O)c3ccccc3)C3=C(C)[C@@H](OC(=O)[C@H](O)[C@@H](NC(=O)c4ccccc4)c4ccccc4)C[C@@](O)([C@@H](OC(=O)c4ccccc4)[C@H]21)C3(C)C | 7.62
11 | 0.8 ×10⁻⁶ cm/s | 0.09 ×10⁻⁶ cm/s | – | – | – | – | 8.8 | – | – | CC(=O)O[C@@]12CO[C@@H]1C[C@H](O)[C@@]1(C)C(=O)[C@H](OC(=O)NCC(=O)N(C)C)C3=C(C)[C@@H](OC(=O)[C@H](O)[C@@H](NC(=O)c4ccccc4)c4ccccc4)C[C@@](O)([C@@H](OC(=O)c4ccccc4)[C@H]21)C3(C)C | 6.00
12 | < 0.63 ×10⁻⁶ cm/s | < 0.63 ×10⁻⁶ cm/s | – | – | – | – | – | – | – | CC(=O)O[C@@]12CO[C@@H]1C[C@H](O)[C@@]1(C)C(=O)[C@H](OC(=O)N[C@H](C)C(=O)O)C3=C(C)[C@@H](OC(=O)[C@H](O)[C@@H](NC(=O)c4ccccc4)c4ccccc4)C[C@@](O)([C@@H](OC(=O)c4ccccc4)[C@H]21)C3(C)C | 5.60
13 | 0.1 ×10⁻⁶ cm/s | 0.08 ×10⁻⁶ cm/s | 75.1% | 19.5 h | 15.3 h | > 60 h | – | 1.3 | – | CC(=O)O[C@@]12CO[C@@H]1C[C@H](O)[C@@]1(C)C(=O)[C@H](OC(=O)CCC(=O)O)C3=C(C)[C@@H](OC(=O)[C@H](O)[C@@H](NC(=O)c4ccccc4)c4ccccc4)C[C@@](O)([C@@H](OC(=O)c4ccccc4)[C@H]21)C3(C)C | 5.33
14 | 28.5 ×10⁻⁶ cm/s | 0.2 ×10⁻⁶ cm/s | 85.2% | 30.1 h | – | > 60 h | – | – | inactive | CC(=O)O[C@H]1C(=O)[C@@]2(C)[C@H]([C@H](OC(=O)c3ccccc3)[C@]3(O)C[C@H](OC(=O)[C@H](O)[C@@H](NC(=O)c4ccccc4)c4ccccc4)C(C)=C1C3(C)C)[C@]1(OC(C)=O)CO[C@@H]1C[C@@H]2O [PACLITAXEL] | 8.00
15 | 0.05 ×10⁻⁶ cm/s | 0.06 ×10⁻⁶ cm/s | – | – | – | – | – | 0.9 | – | CC(=O)O[C@@]12CO[C@@H]1C[C@H](O)[C@@]1(C)C(=O)[C@H](OC(=O)N(C)CC(=O)O)C3=C(C)[C@@H](OC(=O)[C@H](O)[C@@H](NC(=O)c4ccccc4)c4ccccc4)C[C@@](O)([C@@H](OC(=O)c4ccccc4)[C@H]21)C3(C)C | 5.74
16 | < 0.21 ×10⁻⁶ cm/s | < 0.21 ×10⁻⁶ cm/s | – | – | – | – | – | – | – | CC(=O)O[C@@]12CO[C@@H]1C[C@H](O)[C@@]1(C)C(=O)[C@H](OC(=O)NCCO)C3=C(C)[C@@H](OC(=O)[C@H](O)[C@@H](NC(=O)c4ccccc4)c4ccccc4)C[C@@](O)([C@@H](OC(=O)c4ccccc4)[C@H]21)C3(C)C | 6.15
17 | 0.05 ×10⁻⁶ cm/s | 0.05 ×10⁻⁶ cm/s | – | – | – | – | – | 1 | – | CC(=O)O[C@@]12CO[C@@H]1C[C@H](O)[C@@]1(C)C(=O)[C@H](OC(=O)N(C)C(C)(C)C(=O)O)C3=C(C)[C@@H](OC(=O)[C@H](O)[C@@H](NC(=O)c4ccccc4)c4ccccc4)C[C@@](O)([C@@H](OC(=O)c4ccccc4)[C@H]21)C3(C)C | 6.00
18 | < 0.06 ×10⁻⁶ cm/s | < 0.06 ×10⁻⁶ cm/s | – | – | – | – | – | – | – | CC(=O)O[C@@]12CO[C@@H]1C[C@H](O)[C@@]1(C)C(=O)[C@H](OC(=O)N[C@@H](C)C(=O)O)C3=C(C)[C@@H](OC(=O)[C@H](O)[C@@H](NC(=O)c4ccccc4)c4ccccc4)C[C@@](O)([C@@H](OC(=O)c4ccccc4)[C@H]21)C3(C)C | 5.41
